# Results: paper PMC9867332 (Pharmaceutics, 2022)
# Read-outs that look alike come from different tables or passages of the source.
# Key:
# [1] = MTT cytotoxicity assay on uninfected Vero cells; assay type: cell-based; settings: African green monkey, uninfected Vero cells (CCL-81), 3 days at 37 °C, read-out: CC50 (half-maximum cytotoxic concentration)
# Method: Vero cells (CCL-81, American Type Culture Collection, Boston, MA, USA), used as a cellular model for antiviral bioassay, were cultured in Dulbecco’s modified Eagle’s medium (DMEM), supplemented with 10% fetal bovine serum (FBS) and gentamycin, and incubated at 37 °C with 5% CO2. They were used to adapt the avian Massachusetts serotype CoV-IBV strain.
# Cell viability was evaluated using the MTT (3-(4,5-dimethylthiazol-2-yl)-2,5-diphe- nyltetrazolium bromide) method. The MTT assay is sensitive and reliable for cellular metabolic activity. It is based on the ability of nicotinamide adenine dinucleotide phosphate (NADPH)-dependent cellular oxidoreductase enzyme to reduce the tetrazolium dye to the purple formazan crystals. Sub-confluent Vero cells, seeded in 96-well microplates (2 × 10^6 cells/microplate; Thermo Fisher Scientific), were incubated with serial dilutions of synthesized molecules, in duplicates for 3 days at 37 °C. MTT solution (500 μg/mL) was then added, and the cells were incubated for further 4 h. The formed formazan crystals within metabolically viable cells were then dissolved in 100 µL of DMSO, and the absorption, proportional to viable cell number, was measured at 490 nm with a Thermo Scientific Multiskan FC. The results were expressed as a percentage of viable cells relative to the negative control (untreated cells cultured in standard medium and considered 100% viable). The half-maximum cytotoxic concentration (CC50), which was defined as the concentration which reduced the OD490 of the 1,3,4-oxadiazole-derived α-aminophosphonates/α-aminophosphonic acids-treated cells to 50% of that of untreated cells, were determined from the plotted curve of percentages of viable cells against compound concentrations.
# avian CoV-IBV [2] = assay: microbe, parasite or virus in culture; assay type: cell-based; settings: for Virucidal Activity Inhibition (%): 2 h incubation with virus at 37 °C, qRT-PCR
# avian CoV-IBV [3] = assay type: cell-based; settings: IBV titration in infected Vero cells, qRT-PCR, 3 days post-infection
# IBV Beaudette strain = tested on: IBV Beaudette strain; design: method as in PMID 17479370; settings: 5 to 50 mM; cited from earlier work
# IBV = tested on: IBV; design: method as in PMID 17479370; settings: dose-dependent, without virucidal effect; cited from earlier work
# [4] = Avian coronavirus, 2 h, read-out: Virucidal Activity Inhibition (%)
Compound,CC50 at 3 days [1],inhibition at 33 µM (avian CoV-IBV [2]; [4]),Antiviral Activity (avian CoV-IBV [3]; 33 µM),inhibition at 3.66 µM (avian CoV-IBV [2]; [4]),Antiviral Activity (avian CoV-IBV [3]; 3.66 µM),other results
"CCOP(=O)(OCC)C(Nc1nnc(-c2ccccc2)o1)c1ccc([N+](=O)[O-])cc1 (stereo not shown) [5b, diethyl[(5-phenyl-1,3,4-oxadiazol-2-ylamino) (4-nitrophenyl)methyl]phosphonate]",1599 ± 4.73 µM,35 ± 0.53%,Not active,,,
"CCOP(=O)(OCC)C(Nc1nnc(-c2ccccc2)o1)c1ccc(F)cc1 (stereo not shown) [5c, diethyl[(5-phenyl-1,3,4-oxadiazol-2-ylamino)(4-fluorophenyl)methyl]phosphonate]",~550 µM,,,46 ± 1.49%,Not active,
"CCOP(=O)(OCC)C(Nc1nnc(-c2ccccc2)o1)c1ccc(OC(F)(F)F)cc1 (stereo not shown) [5f, diethyl[(5-phenyl-1,3,4-oxadiazol-2-ylamino)(4-trifluoromethoxyphenyl)methyl]phosphonate]",,86.1 ± 1.58%,Not active,,,Virucidal Activity Inhibition (%) (avian CoV-IBV [2]; 33 µM): strongly inhibited the IBV infectivity; melting point: 106.6 to 107.5 °C
"O=P(O)(O)C(Nc1nnc(-c2ccccc2)o1)c1ccc(C(F)(F)F)cc1 (stereo not shown) [6a, [(5-phenyl-1,3,4-oxadiazol-2-ylamino)(4-trifluoromethylphenyl)methyl] phosphonic acid]",~550 µM,,,,,Virucidal Activity Inhibition (%) (avian CoV-IBV [2]; 1.23 µM): strongly inhibited the IBV infectivity; inhibition at 1.23 µM (avian CoV-IBV [2]; [4]): 75 ± 0.75%; Antiviral Activity (avian CoV-IBV [3]; 1.23 µM): Not active; melting point: > 260 °C
"O=[N+]([O-])c1ccc(C(Nc2nnc(-c3ccccc3)o2)P(=O)(O)O)cc1 (stereo not shown) [6b, [(5-Phenyl-1,3,4-oxadiazol-2-ylamino)(4-nitrophenyl)methyl]phosphonic acid]",~550 µM,,,31.4 ± 2.4%,Not active,
"O=P(O)(O)C(Nc1nnc(-c2ccccc2)o1)c1ccc(F)cc1 (stereo not shown) [6c, [(5-Phenyl-1,3,4-oxadiazol-2-ylamino)(4-fluorophenyl)methyl]phosphonic acid]",,59.6 ± 1.34%,Not active,,,
"O=P(O)(O)C(Nc1nnc(-c2ccccc2)o1)c1cc(F)c(F)c(F)c1 (stereo not shown) [6d, [(5-Phenyl-1,3,4-oxadiazol-2-ylamino)(3,4,5-trifluophenyl)methyl]phosphonic acid]",~550 µM,,,25 ± 1.15%,Not active,
"O=P(O)(O)C(Nc1nnc(-c2ccccc2)o1)c1cc(C(F)(F)F)cc(C(F)(F)F)c1 (stereo not shown) [6e, [(5-Phenyl-1,3,4-oxadiazol-2-ylamino)(3,5-bis-trifuoromethyl-phenyl)methyl] phosphonic acid]",~550 µM,22.7 ± 3.25%,Not active,,,
"[Cl-].[Li+] [LiCl, lithium chloride]",,,,,,virucidal activity (virus titre after incubation) (IBV Beaudette strain): did not modify the title of the virus; replication of IBV in Vero cells (IBV): suppress the replication of IBV in Vero cells in a dose-dependent manner
